Values after ≈ are worked out from the molar mass of the structure shown.
How the values were obtained:
Type in all cases: cell-based
THP-1 cell [1] = test: Differentiation of monocyte to macrophage in THP-1 cell line; conditions: for EC50: THP-1 differentiate to macrophage, PMA, 96 hrs incubation; for Maximal activation level / Emax: ratio of best effect of compound to that of erythromycin 100 uM, THP-1 differentiation; for Emax: read-out: Maximal activation level
Description: The THP-1 cell line was purchased from ATCC (American Type Culture Collection, Manassas, Va.). Cells were maintained in growth medium (RPMI-1640) with supplemented with 10% heat inactivated bovine serum, 100× Glutamax medium and 0.05 mM β-Mercaptoethanol at 37° C. under 5% CO2. Compounds were dissolved in 0.1% DMSO. Erythromycin was used as a positive control.
For the assessment of the effect of compounds of the present invention on differentiation of monocyte to macrophage in THP-1 cell line, cells were collected and centrifuged at 900 rpm for 4 minutes. The cell density was adjusted to 2.5×10^5/mL. cell suspension of 400 μL was added to each well of 48-well plate following the plate layout. PMA 1 mg, a compound can induce monocyte differentiation, was dissolved in 10 mL DMSO to form 100 μg/mL solution and aliquote it into 1 mL per vial. 1 mL solution can be further aliquoted into 10 μL per vial and stored the aliquots at −20° C. Make 10-fold dilution of PMA with DMSO and then 500-fold dilution with complete medium. 50 μL solution were then added to each well of 48-well plate following the plate layout. Erythromycin and compounds of examples at stock concentration of 10 mM was serially diluted at 10-fold in DMSO. 50 μL solution was added to each well of 48-well plate following the plate layout. After 96 hrs incubation at 37° C., 5% CO2, the plate was washed with DPBS for three times to remove non-adherent cells for three times. Complete medium 180 μL and alarmar blue 20 μL was added to each well. The fluorescent intensity was read at excitation 530 nm and emission 590 nm using PerkinElmer Victor3 after 3 hours plate incubation.
The differentiation activity of compounds of Examples is compared to that of 100 μM erythromycin and the results are shown in FIG. 1 and Table 3.

THP-1 cell [2] = test: Cell viability (LD50) in THP-1 differentiation test
Description: The medium lethal dose (LD50) is the dosage of a compound that reduces the cell viability by 50%, and is determined using non-linear logistic regression.

[3] = test system: IL-8 expression in BEAS-2B cell; test: LPS induced IL-8 release by BEAS-2B (ELISA); conditions: for Maximum Inhibition: IL-8 expression in BEAS-2B cells, LPS; for IC10: concentration inhibiting IL-8 production on BEAS-2B by 10%, LPS 20 μg/mL
Description: The inhibitory effect of compounds of Examples on the IL-8 expression in BEAS-2B cell was tested using the following method. BEAS-2B was purchased from ATCC (American Type Culture Collection, Manassas, Va.). Cells were maintained in growth medium (LHC-9) and cultured at 37° C. under 5% CO2. Compounds were dissolved in 0.1% DMSO. Erythromycin was used as a positive control.
For the assessment of the effect of compounds of Examples on IL-8 expression inhibition in BEAS-2B cell line, cells were plated in 24 well plate at a density of 100,000/mL, in a final volume of 1 mL of assay medium. Cells were incubated at 37° C., 5% CO2 for 1 day. After the incubation, compounds were added at day 2 and LPS was added at day 3. A compound source plate was prepared by triplicate five-point 10-fold or 2-fold serial dilutions in DMSO, beginning at 1 mM (final top concentration of compounds of Examples in the assay was 100 μM and the DMSO was 0.1%). The positive control consisted of cells treated with 100 μM erythromycin and negative control was consisted of 0.1% DMSO treated cells. LPS stock solution at 5 mg/mL was made by dissolving 10 mg of LPS powder into 2 mL of ddH2O and aliquoted to 100 μL per vial. Final concentration of LPS in the assay was […] by making 125-fold dilution of stock solution with medium.
Specific immunoreactivity for IL-8 in culture supernatants were measured by a commercially available ELISA kits (R&D Systems, Inc., Minneapolis, Minn.). Each sample was assayed in duplicates as recommended by the manufacture. The concentration of compounds of Examples inhibiting IL-8 production on BEAS-2B by 10% was estimated from a 4-parametric of the normalized dose response curve. (IC10)

BEAS-2B cell = test: Cell viability (LD10) in BEAS-2B IL-8 test; conditions: BEAS-2B cell viability
Source text: The lethal dose (LD10) is the dosage of a compound that reduces the cell viability by […], and is estimated from non-linear logistic regression.

[4] = test system: Acinetobacter baumanii ATCC 17978; test: Antibacterial activity, agar dilution MIC; conditions: Acinetobacter baumannii, ATCC17978, 20-24 hrs incubation, read-out: minimum inhibitory concentration MIC
Description: (§1) The antibacterial activity of Erythromycin and compounds of examples were evaluated by the agar dilution method, following the guidelines of the CLSI. […] Briefly, bacteria were grown overnight in adapted media (MHIIA with 5% of sheep blood for Streptococcus pneumoniae and Haemophilus influenzae, and MHIIA for the other bacteria strains) at 35° C., 5% CO2.
(§2) Cultures were centrifuged at 3000×g for 15 min. Pellets were diluted with 5 mls cold PBS and the OD600nm was adjusted to 10^8 CFU.mL^−1 with a spectrometer. Bacteria were then added to 96-well test plates. Compounds were diluted in DMSO in a 2 fold steps from 20 mg/ml in DMSO in 96 well plated and transferred to the test plate. During the incubation, the plate was maintained at 35° C., 5% CO2.
(§3) The MICs for Erythromycin and compounds of examples were determined after 20-24 hrs incubation.

[5] = test system: Acinetobacter baumannii ATCC-BAA-1605; test: Antibacterial activity, agar dilution MIC; conditions: ATCCBAA1605, 20-24 hrs incubation, read-out: minimum inhibitory concentration MIC
Description: as §1, §2, §3

[6] = test system: Enterococcus faecalis ATCC 29212; test: Antibacterial activity, agar dilution MIC; conditions: ATCC29212, 20-24 hrs incubation, read-out: minimum inhibitory concentration MIC
Description: as §1, §2, §3

[7] = test system: Haemophilus influenzae ATCC 49247; test: Antibacterial activity, agar dilution MIC; conditions: ATCC49247, 20-24 hrs incubation, read-out: minimum inhibitory concentration MIC
Description: as §1, §2, §3

[8] = test system: Moraxella catarrhalis ATCC 43617; test: Antibacterial activity, agar dilution MIC; conditions: ATCC43617, 20-24 hrs incubation, read-out: minimum inhibitory concentration MIC
Description: as §1, §2, §3

[9] = test system: Staphylococcus aureus ATCC 29213; test: Antibacterial activity, agar dilution MIC; conditions: ATCC29213, 20-24 hrs incubation, read-out: minimum inhibitory concentration MIC
Description: as §1, §2, §3

[10] = test system: Staphylococcus aureus NRS 384; test: Antibacterial activity, agar dilution MIC; conditions: NRS384, 20-24 hrs incubation, read-out: minimum inhibitory concentration MIC
Description: as §1, §2, §3

[11] = test system: Streptococcus pneumoniae ATCC 49619; test: Antibacterial activity, agar dilution MIC; conditions: ATCC49619, 20-24 hrs incubation, read-out: minimum inhibitory concentration MIC
Description: as §1, §2, §3

[12] = test system: Streptococcus pneumoniae ATCC 6301; test: Antibacterial activity, agar dilution MIC; conditions: ATCC6301, 20-24 hrs incubation, read-out: minimum inhibitory concentration MIC
Description: as §1, §2, §3

[13] = test system: Streptococcus pyogenes ATCC BAA-572; test: Antibacterial activity, agar dilution MIC; conditions: ATCCBAA572, 20-24 hrs incubation, read-out: minimum inhibitory concentration MIC
Description: as §1, §2, §3

[14] = dosage that reduces the cell viability by 50%, THP-1

CC[C@H]1OC(=O)[C@H](C)[C@@H](OC2CC(C)(OC)C(O)C(C)O2)[C@H](C)[C@@H](OC2CC(N(C)C(C)=O)CC(C)O2)[C@@]2(C)CC(C)=C(O2)[C@H](C)[C@@H](O)[C@]1(C)O (stereo partly shown) [LY101-27]
EC50 (THP-1 cell [1]): 12.2 ± 4.6 µM
Maximal activation level (THP-1 cell [1]): 5.3 ± 1.5
LD50 (THP-1 cell [2]; [14]): 121.1 ± 7.8 µM
Maximum Inhibition [3]: 40%
IC10 [3]: 10 µM
LD10 (BEAS-2B cell): 100 µM

CC[C@H]1OC(=O)[C@H](C)[C@@H](OC2CC(C)(OC)C(O)C(C)O2)[C@H](C)[C@@H](OC2CC(N(C)C(C)=O)CC(C)O2)[C@@](C)(O)C[C@@H](C)[C@H](O)[C@H](C)[C@@H](O)[C@]1(C)O (stereo partly shown) [LY101-33]
EC50 (THP-1 cell [1]; Homo sapiens): 22.6 ± 5.7 µM
Emax (THP-1 cell [1]; Homo sapiens): 314 ± 1%
LD50 (THP-1 cell [2]; human): 110.0 ± 12.1 µM
Maximum Inhibition [3]: 25%
IC10 [3]: 20 µM
LD10 (BEAS-2B cell): 60 µM

CC[C@H]1OC(=O)[C@H](C)[C@@H](OC2CC(C)(OC)C(O)C(C)O2)[C@H](C)[C@@H](OC2CC(NC)CC(C)O2)[C@@](C)(O)C[C@@H](C)[C@H](O)[C@H](C)[C@@H](O)[C@]1(C)O (stereo partly shown) [LY101-31]
EC50 (THP-1 cell [1]; Homo sapiens): 32.8 ± 2.5 µM
Emax (THP-1 cell [1]; Homo sapiens): 620 ± 150%
LD50 (THP-1 cell [2]; human): 115.0 ± 10.4 µM

CC[C@H]1OC(=O)[C@H](C)[C@@H](O[C@H]2C[C@@](C)(OC)[C@@H](O)[C@H](C)O2)[C@H](C)[C@@H](O[C@H]2C[C@@H](N(C)C)C[C@@H](C)O2)[C@](C)(O)C[C@@H](C)C(=O)[C@H](C)[C@@H](O)[C@]1(C)O [LY101-2, (3R,4S,5S,6R,9R,11R,12R,13S,14R)-6-(((2S,4S,6R)-4-(dimethylamino)-6-methyltetrahydro-2H-pyran-2-yl)oxy)-14-ethyl-7,12,13-trihydroxy-4-(((2R,4R,5S,6S)-5-hydroxy-4-methoxy-4,6-dimethyltetrahydro-2H-pyran-2-yl)oxy)-3,5,7,9,11,13-hexamethyloxacyclotetradecane-2,10-dione]
MIC [4]: > 128 µg/mL
MIC [5]: > 128 µg/mL
MIC [6]: > 128 µg/mL
MIC [7]: > 128 µg/mL
MIC [8]: > 128 µg/mL
MIC [9]: 64 µg/mL (≈ 89.1 µM)
MIC [10]: > 128 µg/mL
MIC [11]: 16 µg/mL (≈ 22.3 µM)
MIC [12]: 64 µg/mL (≈ 89.1 µM)
MIC [13]: 64 µg/mL (≈ 89.1 µM)
EC50 (THP-1 cell [1]; Homo sapiens): 0.3 ± 0.03 µM
Emax (THP-1 cell [1]; Homo sapiens): 650 ± 170%
LD50 (THP-1 cell [2]; human): 4.6 ± 1.3 µM

CC[C@H]1OC(=O)[C@H](C)[C@@H](OC2CC(C)(OC)C(O)C(C)O2)[C@H](C)[C@@H](OC2CC(N(C)C)CC(C)O2)[C@@](C)(O)CC(C)[C@H](N)[C@H](C)[C@@H](O)[C@]1(C)O (stereo partly shown) [LY101-30]
EC50 (THP-1 cell [1]; Homo sapiens): 36.8 ± 20.1 µM
Emax (THP-1 cell [1]; Homo sapiens): 610 ± 120%
LD50 (THP-1 cell [2]; human): 65.3 ± 7.1 µM

CC[C@H]1OC(=O)[C@H](C)[C@@H](OC2CC(C)(OC)C(O)C(C)O2)[C@H](C)[C@@H](OC2CC(N(C)C(C)C)CC(C)O2)[C@@](C)(O)C[C@@H](C)CN(C)[C@H](C)[C@@H](O)[C@]1(C)O (stereo partly shown) [LY101-47]
EC50 (THP-1 cell [1]; Homo sapiens): 4.3 ± 1.8 µM
Emax (THP-1 cell [1]; Homo sapiens): 310 ± 110%
LD50 (THP-1 cell [2]; human): 64.7 ± 17.9 µM

CC[C@H]1OC(=O)[C@H](C)[C@@H](OC2CC(C)(OC)C(O)C(C)O2)[C@H](C)[C@@H](OC2CC(N(C)C(C)=O)CC(C)O2)[C@@](C)(O)C[C@@H](C)CN(C)[C@H](C)[C@@H](O)[C@]1(C)O (stereo partly shown) [LY101-48]
EC50 (THP-1 cell [1]; Homo sapiens): 18.5 ± 4.2 µM
Emax (THP-1 cell [1]; Homo sapiens): 420 ± 110%
LD50 (THP-1 cell [2]; human): 111.0 ± 13.6 µM

CC[C@H]1OC(=O)[C@H](C)[C@@H](OC2CC(C)(OC)C(O)C(C)O2)[C@H](C)[C@@H](OC2CC(NC)CC(C)O2)[C@@]2(C)CC(C)=C(O2)[C@H](C)[C@@H](O)[C@]1(C)O (stereo partly shown) [LY101-6]
EC50 (THP-1 cell [1]): 11.5 ± 3.2 µM
Maximal activation level (THP-1 cell [1]): 3.9 ± 0.8
LD50 (THP-1 cell [2]; [14]): 103.2 ± 11.4 µM

CC[C@H]1OC(=O)[C@H](C)[C@@H](O)[C@H](C)[C@@H](OC2CC(N(C)C)CC(C)O2)[C@@](C)(O)C[C@@H](C)/C(=N\OCOCCOC)[C@H](C)[C@@H](O)[C@]1(C)O (stereo partly shown) [LY101-40]
EC50 (THP-1 cell [1]; Homo sapiens): 106 µM
Emax (THP-1 cell [1]; Homo sapiens): 180%
LD50 (THP-1 cell [2]; human): 100 µM

CC[C@H]1OC(=O)[C@H](C)[C@@H](OC2CC(C)(OC)C(O)C(C)O2)[C@H](C)[C@@H](OC2CC(N(C)C(C)C)CC(C)O2)[C@@]2(C)CC(C)=C(O2)[C@H](C)[C@@H](O)[C@]1(C)O (stereo partly shown) [LY101-24]
EC50 (THP-1 cell [1]): 6.8 ± 1.4 µM
Maximal activation level (THP-1 cell [1]): 7.0 ± 1.6
LD50 (THP-1 cell [2]; [14]): 56.9 ± 14.0 µM
Maximum Inhibition [3]: 42%
IC10 [3]: 10 µM
LD10 (BEAS-2B cell): 50 µM

CC[C@H]1OC(=O)[C@H](C)[C@@H](OC2CC(C)(OC)C(O)C(C)O2)[C@H](C)[C@@H](OC2CC(N(C)C)CC(C)O2)[C@@](C)(O)C[C@@H](C)CN(C)[C@H](C)[C@@H](O)[C@]1(C)O (stereo partly shown) [LY101-44]
EC50 (THP-1 cell [1]; Homo sapiens): 1.2 ± 0.2 µM
Emax (THP-1 cell [1]; Homo sapiens): 450 ± 90%
LD50 (THP-1 cell [2]; human): 20.4 ± 8.4 µM

— patent publication US20230068020A1, “MACROLIDE COMPOUND AND ITS USE OF TREATMENT CHRONIC RESPIRATORY DISEASE” (priority 2020, published 2023)
